Data published in ChEMBL document CHEMBL3600303, “The N-Terminal T-T Motif of a Third-Generation HIV-1 Fusion Inhibitor Is Not Required for Binding Affinity and Antiviral Activity” (J Med Chem, 2015).
Calls of active or inactive are those of the source. The calls are words filed in the database; no cut-off is given here.

Key:
[1] = system: Human immunodeficiency virus 1; test: Antiviral activity against HIV1 NL4-3 pseudovirus infected in human TZM-bl cells assessed as inhibition of viral entry into cells after 48 hrs by single-cycle infection assay; assay type: functional, organism-based; conditions: Human immunodeficiency virus 1, NL4-3, TZM-bl
[2] = system: Human immunodeficiency virus 1; test: Antiviral activity against wild type HIV1 NL4-3 infected in human TZM-bl cells assessed as inhibition of viral replication after 2 days by luciferase reporter gene assay; assay type: functional, organism-based; conditions: Human immunodeficiency virus 1, NL4-3, TZM-bl, 48 h
[3] = target: Envelope glycoprotein gp160 (Human immunodeficiency virus type 1 group M subtype B (isolate HXB2)(HIV-1)) (UniProt P04578); test: Binding affinity to HIV-1 HXB2 gp41 N-terminal heptad repeat assessed as thermostability of compound at 10 uM after 30 mins by CD spectroscopic analysis; conditions: Human immunodeficiency virus 1
[4] = Thermostability of the compound in PBS assessed as melting temperature at 20 uM by CD spectroscopic analysis; assay type: physicochemical; conditions: buffer
[5] = target: Envelope glycoprotein gp160 (Human immunodeficiency virus type 1 group M subtype B (isolate HXB2)(HIV-1)) (UniProt P04578); test: Binding affinity to HIV-1 HXB2 gp41 N-terminal heptad repeat assessed as thermostability of protein-compound complex at 10 uM after 30 mins by CD spectroscopic analysis; conditions: Human immunodeficiency virus 1
[6] = system: Human immunodeficiency virus 1; test: Antiviral activity against HIV-1 ZM214M.15 pseudovirus infected in human TZM-bl cells assessed as inhibition of viral entry into cells after 48 hrs by single-cycle infection assay; assay type: functional, organism-based; conditions: Human immunodeficiency virus 1, ZM214M.15, TZM-bl
[7] = system: Human immunodeficiency virus 1; test: Antiviral activity against HIV-1 SF162 pseudovirus infected in human TZM-bl cells assessed as inhibition of viral entry into cells after 48 hrs by single-cycle infection assay; assay type: functional, organism-based; conditions: Human immunodeficiency virus 1, SF162, TZM-bl
[8] = system: Human immunodeficiency virus 1; test: Antiviral activity against HIV-1 SC42261.8 pseudovirus infected in human TZM-bl cells assessed as inhibition of viral entry into cells after 48 hrs by single-cycle infection assay; assay type: functional, organism-based; conditions: Human immunodeficiency virus 1, SC42261.8, TZM-bl
[9] = target: Envelope glycoprotein gp160 (Human immunodeficiency virus type 1 group M subtype B (isolate HXB2)(HIV-1), UniProt P04578); test: Binding affinity to HIV-1 HXB2 gp41 N-terminal heptad repeat assessed as inhibition of 6-helix bundle formation after 30 mins by ELISA; set-up: species or system Human immunodeficiency virus 1
[10] = system: Human immunodeficiency virus 1; test: Antiviral activity against wild type HIV1 NL4-3 infected in human TZM-bl cells assessed as inhibition of viral entry into cells after 48 hrs by single-cycle infection assay; assay type: functional, organism-based; conditions: Human immunodeficiency virus 1, NL4-3, TZM-bl
[11] = system: Human immunodeficiency virus 1; test: Antiviral activity against ENF-resistant HIV1 NL4-3 harboring gp41 N-terminal heptad repeat D36G mutant infected in human TZM-bl cells assessed as inhibition of viral entry into cells after 48 hrs by single-cycle infection assay; assay type: functional, organism-based
[12] = system: Human immunodeficiency virus 1; test: Antiviral activity against ENF-resistant HIV1 NL4-3 harboring gp41 N-terminal heptad repeat I37T mutant infected in human TZM-bl cells assessed as inhibition of viral entry into cells after 48 hrs by single-cycle infection assay; assay type: functional, organism-based
[13] = system: Human immunodeficiency virus 1; test: Antiviral activity against ENF-resistant HIV1 NL4-3 harboring gp41 N-terminal heptad repeat V38A mutant infected in human TZM-bl cells assessed as inhibition of viral entry into cells after 48 hrs by single-cycle infection assay; assay type: functional, organism-based
[14] = system: Human immunodeficiency virus 1; test: Antiviral activity against ENF-resistant HIV1 NL4-3 harboring gp41 N-terminal heptad repeat V38M mutant infected in human TZM-bl cells assessed as inhibition of viral entry into cells after 48 hrs by single-cycle infection assay; assay type: functional, organism-based
[15] = system: Human immunodeficiency virus 1; test: Antiviral activity against ENF-resistant HIV1 NL4-3 harboring gp41 N-terminal heptad repeat Q40H mutant infected in human TZM-bl cells assessed as inhibition of viral entry into cells after 48 hrs by single-cycle infection assay; assay type: functional, organism-based
[16] = system: Human immunodeficiency virus 1; test: Antiviral activity against ENF-resistant HIV1 NL4-3 harboring gp41 N-terminal heptad repeat N43K mutant infected in human TZM-bl cells assessed as inhibition of viral entry into cells after 48 hrs by single-cycle infection assay; assay type: functional, organism-based
[17] = system: Human immunodeficiency virus 1; test: Antiviral activity against ENF-resistant HIV1 NL4-3 harboring gp41 N-terminal heptad repeat D36S/V38M double mutant infected in human TZM-bl cells assessed as inhibition of viral entry into cells after 48 hrs by single-cycle infection assay; assay type: functional, organism-based
[18] = system: Human immunodeficiency virus 1; test: Antiviral activity against ENF-resistant HIV1 NL4-3 harboring gp41 N-terminal heptad repeat I37T/N43K double mutant infected in human TZM-bl cells assessed as inhibition of viral entry into cells after 48 hrs by single-cycle infection assay; assay type: functional, organism-based
[19] = system: Human immunodeficiency virus 1; test: Antiviral activity against ENF-resistant HIV1 NL4-3 harboring gp41 N-terminal heptad repeat V38A/N42T double mutant infected in human TZM-bl cells assessed as inhibition of viral entry into cells after 48 hrs by single-cycle infection assay; assay type: functional, organism-based
[20] = system: Human immunodeficiency virus 1; test: Ratio of IC50 for ENF-resistant HIV1 NL4-3 harboring gp41 N-terminal heptad repeat D36G mutant to IC50 for wild type HIV1 NL4-3; assay type: functional
[21] = system: Human immunodeficiency virus 1; test: Ratio of IC50 for ENF-resistant HIV1 NL4-3 harboring gp41 N-terminal heptad repeat I37T mutant to IC50 for wild type HIV1 NL4-3; assay type: functional
[22] = system: Human immunodeficiency virus 1; test: Ratio of IC50 for ENF-resistant HIV1 NL4-3 harboring gp41 N-terminal heptad repeat V38A mutant to IC50 for wild type HIV1 NL4-3; assay type: functional
[23] = system: Human immunodeficiency virus 1; test: Ratio of IC50 for ENF-resistant HIV1 NL4-3 harboring gp41 N-terminal heptad repeat V38M mutant to IC50 for wild type HIV1 NL4-3; assay type: functional
[24] = system: Human immunodeficiency virus 1; test: Ratio of IC50 for ENF-resistant HIV1 NL4-3 harboring gp41 N-terminal heptad repeat Q40H mutant to IC50 for wild type HIV1 NL4-3; assay type: functional
[25] = system: Human immunodeficiency virus 1; test: Ratio of IC50 for ENF-resistant HIV1 NL4-3 harboring gp41 N-terminal heptad repeat N43K mutant to IC50 for wild type HIV1 NL4-3; assay type: functional
[26] = system: Human immunodeficiency virus 1; test: Ratio of IC50 for ENF-resistant HIV1 NL4-3 harboring gp41 N-terminal heptad repeat D36S/V38M double mutant to IC50 for wild type HIV1 NL4-3; assay type: functional
[27] = system: Human immunodeficiency virus 1; test: Ratio of IC50 for ENF-resistant HIV1 NL4-3 harboring gp41 N-terminal heptad repeat I37T/N43K double mutant to IC50 for wild type HIV1 NL4-3; assay type: functional
[28] = system: Human immunodeficiency virus 1; test: Ratio of IC50 for ENF-resistant HIV1 NL4-3 harboring gp41 N-terminal heptad repeat V38A/N42T double mutant to IC50 for wild type HIV1 NL4-3; assay type: functional
[29] = target: Envelope glycoprotein gp160 (Human immunodeficiency virus 1) (UniProt Q72502); test: Binding affinity to HIV1 NL4-3 gp41 N-terminal heptad repeat G36D mutant after 30 mins by CD spectroscopic analysis
[30] = target: Envelope glycoprotein gp160 (Human immunodeficiency virus 1) (UniProt Q72502); test: Binding affinity to HIV1 NL4-3 gp41 N-terminal heptad repeat I37T mutant after 30 mins by CD spectroscopic analysis
[31] = system: Envelope glycoprotein gp160 (Human immunodeficiency virus 1), Q72502 [V38A]; test: Binding affinity to HIV1 NL4-3 gp41 N-terminal heptad repeat V38A mutant after 30 mins by CD spectroscopic analysis
[32] = target: Envelope glycoprotein gp160 (Human immunodeficiency virus 1) (UniProt Q72502); test: Binding affinity to HIV1 NL4-3 gp41 N-terminal heptad repeat Q40H mutant after 30 mins by CD spectroscopic analysis
[33] = target: Envelope glycoprotein gp160 (Human immunodeficiency virus 1) (UniProt Q72502); test: Binding affinity to HIV1 NL4-3 gp41 N-terminal heptad repeat N43K mutant after 30 mins by CD spectroscopic analysis
[34] = target: Envelope glycoprotein gp160 (Human immunodeficiency virus 1) (UniProt Q72502); test: Binding affinity to HIV1 NL4-3 gp41 N-terminal heptad repeat I37T/N43K double mutant after 30 mins by CD spectroscopic analysis
[35] = target: Envelope glycoprotein gp160 (Human immunodeficiency virus 1) (UniProt Q72502); test: Binding affinity to HIV1 NL4-3 gp41 N-terminal heptad repeat V38A/N42T double mutant after 30 mins by CD spectroscopic analysis
[36] = system: Human immunodeficiency virus 1; test: Antiviral activity against wild type HIV-1; assay type: functional, organism-based
[37] = system: Human immunodeficiency virus 1; test: Antiviral activity against HIV-1 pseudovirus harboring Q66R/N126K double mutant; assay type: functional, organism-based
Serum = test: Metabolic stability in Sprague-Dawley rat serum at 4 mg/kg, ip measured at 0.5 to 4 hrs post dose; assay type: ADME, organism-based; conditions: in vivo

Q: Which IC50 [1] does the source give for H-TTWEEWDKKIEEYTKKIEELI-OH here?
A: 18.9 nM

Q: What about the IC50 [2] of the same substance?
A: 17.4 nM

Q: What about the Tm [3] of the same substance?
A: 66.2 °C

Q: Which results are given for “H-WEAWDRAIAEYAARIEALIRAAQEQQEKNEAALREL-OH”?
A: Tm [4]: 46.1 °C; Tm [5]: 81.2 °C; IC50 [1]: 1.07 nM; IC50 [2]: 0.48 nM; IC50 [6]: 0.73 nM; IC50 [7]: 5.75 nM; IC50 [8]: 1.67 nM; IC50 [9]: 77.4 nM; IC50 [10]: 1.1 nM; IC50 [11]: 1.9 nM; IC50 [12]: 2 nM; IC50 [13]: 1.4 nM; IC50 [14]: 1.7 nM; IC50 [15]: 1.2 nM; IC50 [16]: 2.1 nM; IC50 [17]: 1 nM; IC50 [18]: 1.9 nM; IC50 [19]: 0.6 nM; Ratio IC50 [20]: 1.7; Ratio IC50 [21]: 1.8; Ratio IC50 [22]: 1.3; Ratio IC50 [23]: 1.6; Ratio IC50 [24]: 1.1; Ratio IC50 [25]: 1.9; Ratio IC50 [26]: 0.9; Ratio IC50 [27]: 1.7; Ratio IC50 [28]: 0.6; Activity [29]: Active; Activity [30]: Active; Activity [31]: Active; Activity [32]: Active; Activity [33]: Active; Activity [34]: Active; Activity [35]: Active; IC50 [36]: 1.34 nM; IC50 [37]: 7 nM; Stability (Serum): Stable

Q: For H-MTWEEWDKKIEEYTKKIEELI-OH, which IC50 [1] is on record?
A: 4.26 nM

Q: And the IC50 [2]?
A: 3.13 nM

Q: And the Tm [3]?
A: 76.2 °C

Q: Which IC50 [1] does the source give for H-TTWEEWDKKIEEYTKKIEELIKKS-OH here?
A: 46.8 nM

Q: What about the IC50 [2] of the same substance?
A: 26.1 nM

Q: What about the Tm [3] of the same substance?
A: 66.3 °C
